Reference: patent US20110306503A1, “TEMPLATE-DEPENDENT NUCLEIC ACID POLYMERIZATION USING OLIGONUCLEOTIDE TRIPHOSPHATES BUILDING BLOCKS” (Yeda Research And Development Co. Ltd., priority 1999, published 2011)

Biological target: T1, Taq DNA polymerase (Thermus aquaticus, UniProt P19821)
T1 construct: a truncated version of Taq DNA polymerase (543 amino acids of the C-terminus part); made in house; host or cells: E. coli JM109 (pTTQ vector)
Test: Labeled-primer extension assay
Format: biochemical
Conditions: for template-dependent incorporation: template T83, ApG3p and TpC3p together, FIG. 8 lane 2; for incorporation of complementary versus non-complementary dinucleotide: dinucleotide alone, FIG. 7 lanes 6 and 7
Description: The oligonucleotides that were used for this assay are detailed in Table 4 before. The reactions of labeled-primer extension included: polymerization buffer (40 mM Tricine-KOH, pH 8.0; 16 mM KCl; 5 mM MgCl2 and 4 μg BSA), 1 pmol template, 0.2 pmol of the p201 primer (labeled at its 5′ with P^32-γ-ATP using T4 polynucleotide kinase), 1 μM of the indicated dNTP's and 50 μM of the indicated di- or trinucleotide triphosphates in a total volume of 20 μl. The reactions were incubated for 5 minutes at 45° C., then 5 units of Taq DNA polymerase (see Example 3 for details) were added, followed by 20 minutes at 72° C. The reactions were terminated with 15 μl of stop solution (95% formamide, 20 mM EDTA and 0.05% bromophenol blue). Three μl were then separated on Urea-PAGE, and the radiolabeled DNA-bands were detected by phosphoimaging.

T1 sequence (P19821 290-832 limits assumed): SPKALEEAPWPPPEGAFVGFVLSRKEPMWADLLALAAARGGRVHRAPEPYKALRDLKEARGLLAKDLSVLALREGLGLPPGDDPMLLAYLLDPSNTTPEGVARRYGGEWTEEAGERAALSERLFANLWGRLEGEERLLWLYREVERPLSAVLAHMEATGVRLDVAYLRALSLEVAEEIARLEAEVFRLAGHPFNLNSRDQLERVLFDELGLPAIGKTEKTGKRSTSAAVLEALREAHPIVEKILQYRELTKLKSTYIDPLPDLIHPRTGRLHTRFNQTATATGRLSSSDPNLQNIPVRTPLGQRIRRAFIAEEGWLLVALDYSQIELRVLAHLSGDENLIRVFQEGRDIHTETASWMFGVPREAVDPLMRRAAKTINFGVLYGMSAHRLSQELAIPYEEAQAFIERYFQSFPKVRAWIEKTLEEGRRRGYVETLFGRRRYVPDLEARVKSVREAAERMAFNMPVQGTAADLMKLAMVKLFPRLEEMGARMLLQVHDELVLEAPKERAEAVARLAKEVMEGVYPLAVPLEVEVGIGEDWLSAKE

Compound	template-dependent incorporation	incorporation of complementary versus non-complementary dinucleotide (template T24)	further results
Nc1nc2c(ncn2[C@H]2C[C@H](O)[C@@H](COP(=O)(O)O[C@H]3C[C@H](n4cnc5c(N)ncnc54)O[C@@H]3CO)O2)c(=O)[nH]1 [ApG3p, 2′-deoxyadenylyl(3′-5′)-2′-deoxyguanosine]	template-dependent incorporation	–	–
Nc1ccn([C@H]2C[C@H](OP(=O)(O)OC[C@H]3O[C@@H](n4cnc5c(N)ncnc54)C[C@@H]3O)[C@@H](CO)O2)c(=O)n1 [CpA3p, 2′-deoxycytidylyl(3′-5′)-2′-deoxyadenosine]	–	seems to be incorporated	template-dependent incorporation onto 3′ end of labeled primer p201 (templates T80 and T81, 50 μM dinucleotide triphosphates, FIG. 6 lanes 3-7): correct incorporation; efficiency of incorporation compared to the natural dNTP's (templates T80 and T81, FIG. 6 lanes 3-7 vs lane 2): lower efficiency
Nc1ccn([C@H]2C[C@H](OP(=O)(O)OC[C@H]3O[C@@H](n4ccc(N)nc4=O)C[C@@H]3O)[C@@H](CO)O2)c(=O)n1 [CpC3p, 2′-deoxycytidylyl(3′-5′)-2′-deoxycytidine]	–	Only the complementary dinucleotide (CpA3p) seems to be incorporated	–
Cc1cn([C@H]2C[C@H](OP(=O)(O)OC[C@H]3O[C@@H](n4ccc(N)nc4=O)C[C@@H]3O)[C@@H](CO)O2)c(=O)[nH]c1=O [TpC3p, thymidylyl(3′-5′)-2′-deoxycytidine]	template-dependent incorporation	–	–
thymidylyl-3′-5′-thymidylyl-3′-5′-thymidine (DNA TTT; DNA, phosphodiester; triphosphate form of the trinucleotide, triphosphate end not given here, further chemistry not fully specified) [TpTpT3p]	–	–	template-dependent incorporation in a mix with dCTP and dATP (template T24, FIG. 7 lanes 4 and 5): utilized
